Among the data in ChEMBL document CHEMBL1140774, “Sterol C24-methyltransferase: mechanistic studies of the C-methylation reaction with 24-fluorocycloartenol” (Bioorg Med Chem Lett, 2008) are Km and kcat values, retold here.

This experiment concerns Glycine max. Nature of the experiment: Activity of soybean recombinant SMT1.

On to `CC(C)=CCC[C@@H](C)[C@H]1CC[C@@]2(C)[C@@H]3CC[C@H]4C(C)(C)[C@@H](O)CC[C@@]45C[C@@]35CC[C@]12C`, for which the Km was determined as 30 µM and the kcat stood at 0.01 s⁻¹.

One may read the Km as the substrate concentration at which the rate is half of its maximum. Broadly, the kcat is the number of substrate molecules converted per active site and unit of time at saturation.
